Literature values in US20100273258A1, “Interactive Microenvironment System” (The Ohio State University, priority 2009, published 2010).

Tests used:
[1] = tested on: human breast cancer cell lines
[2] = tested on: DNA methylation of cancer suppressor genes; settings: versus 5-Aza-2′-deoxycystidine and Trichostatin A (TSA)

| SMILES | anti-proliferative effects ([1]; MCF-7, MCF-7Adr and MDA-MB-231 human breast cancer cell lines) | anti-human breast cancer proliferative potency relative to racemic (±)-GP ([1]; previously published data) [fold] | demethylating agent compared with clinical drugs [2] |
| --- | --- | --- | --- |
| Cc1cc2c(C(C)C)c(O)c(O)c(C=O)c2c(O)c1-c1c(C)cc2c(C(C)C)c(O)c(O)c(C=O)c2c1O (racemic) [(±)-GP] | anti-proliferative effects |  |  |
| Cc1cc2c(C(C)C)c(O)c(O)c(C=O)c2c(O)c1-c1c(C)cc2c(C(C)C)c(O)c(O)c(C=O)c2c1O [(−)-GP] |  | 10 | much better demethylating agent |
